Experimental data: article PMC10700673, “A Smart Intracellular Self‐Assembling Bioorthogonal Raman Active Nanoprobe for Targeted Tumor Imaging” (Advanced Science, 2023)

How the values were obtained:
[1] = in vivo toxicity and biocompatibility; parameters: species or system healthy female rag2 mice; conditions: 7 days after IV 100 µL, 0.0125 mmol kg-1, n = 3
Source text: The in vivo toxicity and biocompatibility of nanoSABER were investigated following IV injection of nanoSABER in mice (Figure 7a). […] In addition, we examined various common indicators related to renal function (Figure 7c), liver function (Figure 7d), and bone marrow function (Figure 7e). […] These findings further confirm the biocompatibility and safety of the nanoSABER for in vivo targeted tumor imaging.
Figure 7 a) Schematic illustration of in vivo toxicity and biocompatibility assessment 7 days after IV injection of nanoSABER. b) Histology of major organs excised and stained with H&E for PBS (control) or nanoSABER injection. c) Kidney function test for blood plasma and urine. d) Liver function test for the enzymes aspartate transaminase (AST), alkaline phosphatase (ALP), and alanine transaminase (ALT) in blood plasma. e) Bone marrow function test for red blood cells (RBCs), white blood cells (WBCs), and platelets in blood plasma. All data are presented as mean ± standard deviation, n = 3. p‐Values of <0.001 (***), 0.001 to 0.01 (**), and 0.01 to 0.05 (*) were considered significant.
All animal experiments were carried out under an approved IACUC protocol. The biocompatibility of nanoSABER was evaluated in vivo, using healthy female rag2 mice that were divided into two groups (n = 3 each). […]

DU145 cells = assay: confocal Raman imaging of cells; format: cell-based; conditions: 100 µM, 3 h, then fresh media 30 min; fixed cells; DU145, legumain overexpressing
Description: (§1) Raman measurements were performed on cells cultured on quartz slides. Cells were incubated with 100 µM nanoSABER probe solution for 3 h, then fresh media was added and incubation was continued for an extra 30 min. Subsequently, the cells were washed three times with phosphate‐buffered saline (PBS), fixed with 4% paraformaldehyde (PFA) for 20 min, and washed with PBS again. Finally, cells were imaged using a confocal Raman microscope. Cell boundaries were constructed using the Raman peak at 1440 cm^−1 characteristic of intrinsic cellular signals.^[ [29] ^] […] These spectral features indicate legumain‐mediated intracellular self‐assembly of nanoSABER into alkyne‐dimer nanoparticles in DU145 cells. The Raman mapping results were consistent with our in vitro solution‐based measurements (Figure 2f) where the nitrile peak diminished after the formation of alkyne‐dimer.
(§2) Raman spectra of all synthesized peptides were acquired using a 785 nm laser and a 50× objective. The acquisition time was 10 s with 5 repetitions. All spectra were processed using custom‐written scripts in MATLAB for a tenth‐order least‐squares polynomial baseline correction with a moving window of 50. All Raman cellular imaging maps were acquired using 785 nm laser excitation and a 60× water immersion objective. For each acquisition time, the number of accumulations were 6 s and 8 acquisitions, respectively. For sample preparation, 1 × 10^5 cells were cultured in six‐well plates containing 10×10 mm quartz slides for 24 h. Cells were incubated with 100 µM of nanoSABER or Scr nanoprobe for 3 h followed by replacement with fresh media and additional incubation for 30 min. Cells were washed with PBS three times and then fixed with 4 % paraformaldehyde (PFA) for 20 min, resuspended back in PBS, and then imaged using a confocal Raman microscope. […] For each group, three independent experiments were performed, and from each pellet, we recorded Raman spectra from eight different positions. […]

LNCaP cells = assay: confocal Raman imaging of cells; format: cell-based; conditions: 100 µM, 3 h, then fresh media 30 min, fixed cells, legumain low-expressing
Description: as §1, §2

RWPE1 cells = assay: confocal Raman imaging of cells; format: cell-based; conditions: 100 µM, 3 h, then fresh media 30 min; fixed cells; RWPE1, normal prostate epithelium
Description: as §1, §2

In the case of “Ac‐Arg‐Arg‐Arg‐Arg‐Arg‐Arg‐Ala‐Ala‐Asn‐Cys(StBu)‐Pra‐Lys‐CBT [nanoSABER]”, the “renal, liver and bone marrow function parameters” value ([1]; compared with PBS group) is reported as “fell within a normal reference range”, the “H&E histology of major organs” value ([1]; heart, liver, lung, kidney, spleen) is reported as “no signs of histopathological damage or tissue inflammation” and the “Raman map, alkyne 2120 cm-1 and nitrile 2230 cm-1 signals” value (DU145 cells) is reported as “undetectable signal levels at 2230 cm^−1”. For the same substance, the “Raman map, alkyne and nitrile signals” value (LNCaP cells) was “signals for both alkyne and nitrile groups from the nanoprobe were observed” and the “Raman map, alkyne and nitrile signals” value (RWPE1 cells) was “signals for both alkyne and nitrile groups from the nanoprobe were observed”.
